Measured values taken from patent publication US4983740A, “Process for 1,4-dihydropyridine compounds” (Adir et Compagnie, priority 1986, dated 1991).

Key:
rat aorta = assay: In vitro activity in rat aorta stimulated by potassium ions; type: cell-based, rat (male Wistar); details: 1 h; rat aorta rings, KCl 80 mM stimulation, cumulative doses at 60 minutes intervals
Method: Determination of the Vitro Activity in Rat Aorta Stimulated by Potassium Ions
This trial was carried out using isolated organs removed from male Wistar rats weighing 300 to 400 g, kept under a water diet 18 hours before sacrificing.
After quickly sacrificing the animal, the aorta (at the level of the arch of the aorta) is removed and dissected into 2 mm-long rings; the endothelium is removed mechanically. After an equilibration period of 1 hour in a physiological solution consisting of (mM): NaCl 112, KCl 5, KH2 PO4 1, MgSO4 1.2, CaCl2 2.5, NaHCO3 25 and glucose 11.5, the preparations are stimulated with a potassium-rich solution. The latter consists of (mM):NaCl 37, KCl 80, KH2 PO4 1, MgSO4 1.2, CaCl2 2.5, NaHCO3 25 and glucose 11.5. This solution has a pH of 7.4 at 37° C.
After 15 minutes of stabilization, the compounds to be tested are then added (sample volume 0.2 ml) at cumulative doses at 60 minutes intervals. From the relaxation values obtained, it is possible to construct a doseresponse curve, leading to the calculation of an IC50 value (expressed in M).

[1] = test system: conscious spontaneous hypertensive rats (SHR); assay: Short-term studies in conscious spontaneous hypertensive rats (oral, systolic arterial pressure); type: in vivo, rat (SHR)
Method: Short-term Studies in Conscious Spontaneous Hypertensive Rats (SHR)
Male spontaneous hypertensive rats weighing 270 to 320 g, aged 16 to 24 weeks, are anesthetized with ether. A polyethylene catheter is introduced into the femoral artery and moved forward to the level of the tail. The pressure in the femoral artery is recorded with a Statham® P23 sensor, on a Gould® 2400 recorder. The animals are treated at least one hour after the operation. The compounds are administered orally, in the dissolved form. The doses administered are expressed in mg/kg of base. The compounds of the invention were compared with amlodipine and with another 1,4-dihydropyridine derivative reference compound, nifedipine.

[2] = test system: conscious spontaneous hypertensive rats (SHR); assay: Long-term studies in conscious spontaneous hypertensive rats (oral, single daily dose, systolic arterial pressure); type: in vivo, rat (SHR); details: 1 mg/kg/d; for Systolic arterial pressure Δ(mm Hg) 24 h after the last administration of the products, D1: day 1; for Systolic arterial pressure Δ(mm Hg) 24 h after the last administration of the products, D2: day 2; for Systolic arterial pressure Δ(mm Hg) 24 h after the last administration of the products, D4: day 4; for Systolic arterial pressure Δ(mm Hg) 24 h after the last administration of the products, D7: day 7
Method: Long-term Studies in Conscious Spontaneous Hypertensive rats (SHR) Male rats weighing 280 to 300 g, aged 16 weeks, are used in this study. The systolic arterial pressure is determined with a Rhema multichannel 8,000® apparatus, according to the indirect method, at the tail of the animal. The compounds to be tested are administered orally, in a single daily dose. Determinations of arterial pressure are carried out each day just before the treatment. Amlodipine was also studied under the same conditions.

[3] = test system: conscious dogs with renal hypertension; assay: Study in conscious dogs with renal hypertension (oral, mean arterial pressure); type: in vivo, dog (Mongol); details: digestive route
Description: Study in Conscious Dogs with Renal Hypertension
Mongol dogs weighing 20 to 25 kg are used. A Silastic® catheter, inserted under anesthesia at the level of the abdominal aorta, left in position permanently, enables the arterial pressure to be determined subsequently in the conscious animal.
Arterial hypertension is induced by a second operation, under anesthesia, consisting in constricting the left renal artery with a clip, decreasing the flow rate therein by approximately 70%, the left kidney is also covered with a latex capsule in order to restrict circulatory compensations; the contralateral kidney is left in position.
The systolic, diastolic and mean arterial pressures are determined with a Statham® P23 pressure sensor attached to the Silastic® catheter and connected to a Gould® "pressure-processor". The compounds are tested in animals which became hypertensive in the conscious state at least one week after the second operation. The arterial pressure is continuously recorded up to 7 hours after the treatment and then at 24 hours.
The compounds to be tested are administered by the digestive route through gastric tubing, in the form of a solution which may be aqueous, aqueous/alcoholic and the like, depending on the solubility of the products.
The doses administered are expressed in mg base per body weight kg.

[4] = test system: unanesthetized spontaneously hypertensive rats (SHR); assay: Study in unanesthetized spontaneously hypertensive rats (intravenous, systolic blood pressure); type: in vivo, rat (SHR); details: for Systolic blood pressure changes (ΔmmHg) after treatment, 1H 30 min / Systolic blood pressure changes (ΔmmHg) after treatment, 3H / Systolic blood pressure changes (ΔmmHg) after treatment, 6H: 0.1 mg/kg, intravenous
Method: Study in Unanesthetized Spontaneously Hypertensive Rats (SHR)
SHR male rats weighing 280 to 350 g and aged from 18 to 24 weeks are anaesthetized with imalgene® (150 mg/kg i.p.). Two polyethylene catheters are introduced, one into the abdominal aorta for the recording of hemodynamic parameters and the other into the jugular vein for the administration of the products. The catheters are taken through to neck level. The animals are used at least 48 hours after surgical intervention.
The systolic and diastolic abdominal bood pressures are recorded by means of a Statham P23XL transducer on a Gould ES 1000 recorder. The products are administered intravenously in a volume of 0.5 ml/kg. The doses administered of the test compounds are expressed in mg/kg of base. The blood pressure is recorded in continuous fashion up to 6 hours after the treatment.
The changes in systolic blood pressure after treatment are recorded in Table VIII.

[5] = target: T1, dihydropyridine site associated with the calcium slow channel (Rattus norvegicus, UniProt Q02485); assay: Affinity for the dihydropyridine binding site, displacement of [3H]-PN 200-110; design: species or system rat (Wistar); details: for Ki: displacement of [3H]-PN 200-110, microsomal membranes of rat skeletal muscle
T1 construct: microsomal membrane preparations prepared from skeletal muscle of rat (Wistar) hind limbs; from tissue; host or cells: skeletal muscle of rat (Wistar) hind limbs, microsomal fraction
T1 sequence (Q02485 whole entry): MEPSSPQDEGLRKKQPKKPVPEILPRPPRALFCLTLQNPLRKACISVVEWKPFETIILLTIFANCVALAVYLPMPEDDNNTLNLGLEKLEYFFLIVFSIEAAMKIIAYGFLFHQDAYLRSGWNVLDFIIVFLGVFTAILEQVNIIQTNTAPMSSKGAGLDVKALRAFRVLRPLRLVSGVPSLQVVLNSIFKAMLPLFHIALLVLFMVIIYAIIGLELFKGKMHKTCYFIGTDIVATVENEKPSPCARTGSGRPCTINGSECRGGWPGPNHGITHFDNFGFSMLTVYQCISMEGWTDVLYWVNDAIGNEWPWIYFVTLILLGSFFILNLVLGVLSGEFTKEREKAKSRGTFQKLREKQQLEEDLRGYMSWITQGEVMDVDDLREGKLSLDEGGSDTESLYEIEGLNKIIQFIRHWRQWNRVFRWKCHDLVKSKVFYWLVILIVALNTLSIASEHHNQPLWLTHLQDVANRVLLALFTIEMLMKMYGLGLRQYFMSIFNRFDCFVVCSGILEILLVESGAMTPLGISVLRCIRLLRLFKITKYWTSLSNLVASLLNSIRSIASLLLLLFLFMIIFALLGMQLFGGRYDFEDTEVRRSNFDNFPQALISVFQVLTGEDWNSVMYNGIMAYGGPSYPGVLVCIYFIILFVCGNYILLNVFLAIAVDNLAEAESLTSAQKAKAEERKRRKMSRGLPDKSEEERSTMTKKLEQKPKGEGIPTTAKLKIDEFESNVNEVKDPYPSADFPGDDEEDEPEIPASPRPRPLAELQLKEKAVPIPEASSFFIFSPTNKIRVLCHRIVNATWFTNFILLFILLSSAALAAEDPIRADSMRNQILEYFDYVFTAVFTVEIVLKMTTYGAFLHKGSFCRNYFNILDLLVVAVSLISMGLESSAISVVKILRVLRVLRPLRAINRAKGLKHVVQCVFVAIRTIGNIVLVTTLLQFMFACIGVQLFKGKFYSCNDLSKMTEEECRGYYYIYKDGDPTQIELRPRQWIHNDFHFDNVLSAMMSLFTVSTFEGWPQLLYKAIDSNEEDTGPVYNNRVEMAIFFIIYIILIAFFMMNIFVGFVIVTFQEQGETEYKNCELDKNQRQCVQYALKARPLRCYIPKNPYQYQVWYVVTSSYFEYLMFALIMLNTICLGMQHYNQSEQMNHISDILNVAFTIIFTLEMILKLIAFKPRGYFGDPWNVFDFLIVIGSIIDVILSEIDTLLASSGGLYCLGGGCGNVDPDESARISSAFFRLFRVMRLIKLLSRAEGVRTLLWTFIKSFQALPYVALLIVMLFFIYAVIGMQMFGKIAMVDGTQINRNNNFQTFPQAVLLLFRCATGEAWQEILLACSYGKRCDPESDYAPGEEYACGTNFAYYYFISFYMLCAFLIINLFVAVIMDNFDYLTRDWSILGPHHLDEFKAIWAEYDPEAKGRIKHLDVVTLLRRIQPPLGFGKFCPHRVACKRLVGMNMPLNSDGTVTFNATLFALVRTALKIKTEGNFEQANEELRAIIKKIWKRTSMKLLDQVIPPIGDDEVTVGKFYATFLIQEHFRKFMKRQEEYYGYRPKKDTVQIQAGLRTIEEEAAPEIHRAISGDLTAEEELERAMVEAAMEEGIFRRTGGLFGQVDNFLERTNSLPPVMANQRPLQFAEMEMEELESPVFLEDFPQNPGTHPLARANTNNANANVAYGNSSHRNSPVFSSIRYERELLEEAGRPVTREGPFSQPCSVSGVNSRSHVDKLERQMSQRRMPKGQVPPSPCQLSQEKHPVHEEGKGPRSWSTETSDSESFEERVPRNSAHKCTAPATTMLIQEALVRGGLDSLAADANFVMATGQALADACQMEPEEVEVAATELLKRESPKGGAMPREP
T1 sequence (P54290 25-945 partner limits assumed): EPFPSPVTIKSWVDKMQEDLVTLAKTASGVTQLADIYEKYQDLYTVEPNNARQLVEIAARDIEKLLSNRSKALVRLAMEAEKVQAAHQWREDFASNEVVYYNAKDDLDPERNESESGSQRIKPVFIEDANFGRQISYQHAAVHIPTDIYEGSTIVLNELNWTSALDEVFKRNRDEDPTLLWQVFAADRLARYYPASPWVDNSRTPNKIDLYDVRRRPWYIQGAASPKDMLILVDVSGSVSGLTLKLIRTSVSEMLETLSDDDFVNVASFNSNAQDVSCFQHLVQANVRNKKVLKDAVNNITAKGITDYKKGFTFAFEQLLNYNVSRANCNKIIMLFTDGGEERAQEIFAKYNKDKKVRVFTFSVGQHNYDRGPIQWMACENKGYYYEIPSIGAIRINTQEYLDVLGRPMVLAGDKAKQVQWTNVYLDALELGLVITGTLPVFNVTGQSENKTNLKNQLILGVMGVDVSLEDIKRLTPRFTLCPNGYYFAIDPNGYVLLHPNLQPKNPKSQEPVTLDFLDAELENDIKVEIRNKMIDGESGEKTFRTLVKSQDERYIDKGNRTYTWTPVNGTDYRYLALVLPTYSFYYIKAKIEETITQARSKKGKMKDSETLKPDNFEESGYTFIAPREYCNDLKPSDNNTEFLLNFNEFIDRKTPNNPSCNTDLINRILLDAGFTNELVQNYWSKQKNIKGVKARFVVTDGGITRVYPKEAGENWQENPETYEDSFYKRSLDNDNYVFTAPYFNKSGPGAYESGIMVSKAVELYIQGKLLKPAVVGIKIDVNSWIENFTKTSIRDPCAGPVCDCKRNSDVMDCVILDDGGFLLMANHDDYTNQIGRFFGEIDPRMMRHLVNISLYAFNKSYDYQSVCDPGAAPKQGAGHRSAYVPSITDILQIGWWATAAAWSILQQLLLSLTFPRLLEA
T1 sequence (P54290 946-1091 partner limits assumed): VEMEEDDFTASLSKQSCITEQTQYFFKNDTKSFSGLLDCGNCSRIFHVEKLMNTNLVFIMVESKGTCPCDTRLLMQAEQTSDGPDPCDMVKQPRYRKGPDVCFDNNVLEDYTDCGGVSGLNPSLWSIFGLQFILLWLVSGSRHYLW
T1 sequence (P54283 whole entry partner): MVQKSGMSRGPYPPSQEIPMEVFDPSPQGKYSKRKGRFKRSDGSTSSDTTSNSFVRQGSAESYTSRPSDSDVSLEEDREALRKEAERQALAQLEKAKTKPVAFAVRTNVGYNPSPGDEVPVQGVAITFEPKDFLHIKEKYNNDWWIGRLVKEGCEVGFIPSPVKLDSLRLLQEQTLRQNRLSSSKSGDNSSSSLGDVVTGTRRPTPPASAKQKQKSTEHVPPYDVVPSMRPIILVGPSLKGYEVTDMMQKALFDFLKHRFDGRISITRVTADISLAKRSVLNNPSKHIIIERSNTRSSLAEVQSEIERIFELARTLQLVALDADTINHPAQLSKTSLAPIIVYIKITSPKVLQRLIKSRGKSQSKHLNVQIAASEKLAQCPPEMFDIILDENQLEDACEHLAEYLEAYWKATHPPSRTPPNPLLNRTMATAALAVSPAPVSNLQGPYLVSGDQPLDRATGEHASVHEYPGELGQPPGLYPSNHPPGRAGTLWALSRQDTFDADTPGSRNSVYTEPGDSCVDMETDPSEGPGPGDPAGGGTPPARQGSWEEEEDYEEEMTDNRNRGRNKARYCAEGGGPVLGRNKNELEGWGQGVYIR
T1 sequence (P97707 whole entry partner): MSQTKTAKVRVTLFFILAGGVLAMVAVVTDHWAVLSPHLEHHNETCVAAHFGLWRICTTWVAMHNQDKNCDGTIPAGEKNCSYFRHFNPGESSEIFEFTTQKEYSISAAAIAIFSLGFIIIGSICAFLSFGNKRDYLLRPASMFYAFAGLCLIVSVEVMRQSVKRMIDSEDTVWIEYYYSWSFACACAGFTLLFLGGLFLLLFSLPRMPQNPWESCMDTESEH
Method: Affinity for the Dihydropyridine Binding Site
This study was carried out on microsomal membrane preparations prepared from skeletal muscle of rat (Wistar) hind limbs.
The rats are killed by decapitation. The skeletal muscles are removed and washed in buffer I (20 mM MOPS/KOH pH 7.4, 0.3M sucrose, 1 mM EDTA, 0.1 mM iodoacetamide, 1 μM pepstatin A, 1 mg/l leupeptin and 0.1 μM PMSF). The muscles are then mechanically fragmented, taken up in 4 volumes of buffer I per gramme of tissue and homogenized.
The homogenate is then centrifuged for 10 minutes at 3,200 g, the pellets are removed and the supernatants are then centrifuged for 20 minutes at 15,000 g, and the supernatants are stirred for 15 minutes at 4° C. in buffer I containing 0.6M final KCl and then centrifgued for 45 minutes at 70,000 g.
The pellets are taken up in buffer I and homogenized in a Potter. The homogenates are centrifuged at 100,000 g for 45 minutes and the pellets thereby obtained correspond to the microsomal fraction used for the studies of binding and displacement.
The activity of the product is assessed by the displacement of [^3 H]-PN 200-110, bound specifically to its receptor associated with the calcium slow channel, by increasing concentrations of the test products. The value obtained (K0.5) for each of the products, which represents the concentration of the product displacing 50% of the [^3 H]-PN 200-110, permits calculation of a true dissociation constant (KI): [formula] where [L*] is the concentration of free [^3 H]-PN 200-110 and Kd the dissociation constant at equilibrium of the [^3 H]-PN 200-110 complex, determined by direct binding.
The KI values of the two products are recorded in Table VI

[6] = target: isolated rabbit mesenteric artery (Oryctolagus cuniculus, UniProt P15381); assay: Study on isolated rabbit mesenteric artery contracted with calcium; type: cell-based, rabbit (New Zealand); details: compound of example 50 versus its racemate
Method: Study on Isolated Rabbit Mesenteric Artery Contracted with Calcium
This test is performed on organs removed from male New Zealand rabbits weighing 2.5 to 3 kg, subjected to a water regimen for 18 hours before sacrifice.
After the animal is rapidly sacrificed, the mesenteric artery is removed and dissected into rings 2 mm long; the endothelium is removed mechanically.
After a stabilization period of 90 minutes, the preparations are subjected to a depolarizing medium (35 mM KCl) without calcium (0.1 mM EGTA) for 15 minutes.
A control series is prepared by adding cumulative doses of calcium to the bath every 6 minutes until a maximum of effect is produced. The preparations are then rinsed for a period of 15 minutes and the product is incubated for one hour before renewal of the calcium series.
A single concentration of the product is tested per organ.
The responses obtained in the presence of product are expressed as a percentage of the maximal value of the control series.
The pD'2 value is calculated according to the method of Van Rossum (1963).

Compound	IC50 (rat aorta)	Systolic arterial pressure after treatment, Δ mm Hg, 4 h ([1]; 1 mg/kg)	Systolic arterial pressure after treatment, Δ mm Hg, 6 h ([1]; 1 mg/kg)	Systolic arterial pressure after treatment, Δ mm Hg, 24 h ([1]; 1 mg/kg)	Systolic arterial pressure after treatment, Δ mm Hg, 4 h ([1]; 3 mg/kg)	Systolic arterial pressure after treatment, Δ mm Hg, 6 h ([1]; 3 mg/kg)	Systolic arterial pressure after treatment, Δ mm Hg, 24 h ([1]; 3 mg/kg)	Systolic arterial pressure Δ(mm Hg) 24 h after the last administration of the products, D1 [2]	Systolic arterial pressure Δ(mm Hg) 24 h after the last administration of the products, D2 [2]	Systolic arterial pressure Δ(mm Hg) 24 h after the last administration of the products, D4 [2]	Systolic arterial pressure Δ(mm Hg) 24 h after the last administration of the products, D7 [2]	Mean arterial pressure after treatment, Δ mm Hg, 4 h ([3]; 0.5 mg/kg)	Mean arterial pressure after treatment, Δ mm Hg, 7 h ([3]; 0.5 mg/kg)	Mean arterial pressure after treatment, Δ mm Hg, 24 h ([3]; 0.5 mg/kg)	Mean arterial pressure after treatment, Δ mm Hg, 4 h ([3]; 1.0 mg/kg)	Mean arterial pressure after treatment, Δ mm Hg, 7 h ([3]; 1.0 mg/kg)	Mean arterial pressure after treatment, Δ mm Hg, 24 h ([3]; 1.0 mg/kg)	Systolic blood pressure changes (ΔmmHg) after treatment, 1H 30 min [4]	Systolic blood pressure changes (ΔmmHg) after treatment, 3H [4]	Systolic blood pressure changes (ΔmmHg) after treatment, 6H [4]	further results
CCOC(=O)C1=C(COCCOCCN)NC(C)=C(C(=O)OC)C1c1c(F)c(F)c(F)c(F)c1F (racemic) [EXAMPLE 1, (4R,S)-2-{[2-(2-Aminoethoxy)ethoxy]methyl}-3-ethoxycarbonyl-5-methoxycarbonyl-6-methyl-4-pentafluorophenyl-1,4-dihydropyridine hemifumarate]	25 nM	-44 mm Hg	-54 mm Hg	-47 mm Hg	-79 mm Hg	-78 mm Hg	-71 mm Hg	-52 mm Hg	-51 mm Hg	-44 mm Hg	-46 mm Hg	-21 mm Hg	-22 mm Hg	-15 mm Hg	-45 mm Hg	-47 mm Hg	-46 mm Hg	–	–	–	Systolic arterial pressure Δ(mm Hg) 24 h after the last administration of the products, D3 ([2]; day 3): -49 mm Hg
CCOC(=O)C1=C(COCCOCCN)NC(C)=C(C(=O)OC)C1c1cccc(Cl)c1Cl (racemic) [EXAMPLE 6, (4R,S)-2-{[2-(2-Aminoethoxy)ethoxy]methyl}-4-(2,3-dichlorophenyl)-3-ethoxycarbonyl-5-methoxycarbonyl-6-methyl-1,4-dihydropyridine]	5 nM	-14 mm Hg	-17 mm Hg	-17 mm Hg	-52 mm Hg	-55 mm Hg	-36 mm Hg	-22 mm Hg	-18 mm Hg	-17 mm Hg	-31 mm Hg	-20 mm Hg	-29 mm Hg	-11 mm Hg	-40 mm Hg	-44 mm Hg	-49 mm Hg	-11 ± 3 mmHg	-5 ± 3 mmHg	-5 ± 2 mmHg	Ki [5]: 8.2 ± 1.7 nM
CCOC(=O)C1=C(COCCOCCN)NC(C)=C(C(=O)OC)C1c1cccc(Cl)c1Cl (single isomer, unassigned; (-)) [EXAMPLE 50, (-)-2-{[2-(2-Aminoethoxy)ethoxy]methyl}-4-(2,3-dichlorophenyl)-3-ethoxycarbonyl-5-methoxycarbonyl-6-methyl-1,4-dihydropyridine]	–	–	–	–	–	–	–	–	–	–	–	–	–	–	–	–	–	-16 ± 2 mmHg	-18 ± 2 mmHg	-21 ± 5 mmHg	activity compared with its racemate six hours after treatment ([4]; same dose, six hours after treatment, versus racemate): approximately 4 times; activity compared with its racemate, in words ([4]; versus racemate): more potent and sustained even better over a period of time; superiority compared with its racemate in preventing a calcium-induced vascular contraction [6]: more than double; affinity for the dihydropyridine sites compared with its racemate ([5]; compound of example 50 versus its racemate): 30 times; Ki [5]: 0.28 ± 0.15 nM
